Laboratory results: patent US20180188258A1, “MARKER FOR HETEROGENEITY OF CANCER TISSUE, AND USE THEREOF” (Keio University, priority 2015, published 2018)

Tested on: cancer tissue of the Mix mouse (MDA-MB-231 + HCC1937 cells) and of the 231 mouse (MDA-MB-231 cells)
Experiment: Study on therapeutic effects by anticancer drug in tumor-bearing mice (tumor volume over time)
Type: in vivo
Details: Paclitaxel 3 mg/kg intraperitoneally once a week; Mix mouse compared with 231 mouse; BALB/c-nu; control physiological saline
Text: The MDA-MB-231 cell line and the HCC1937 cell line were mixed so that the cell number of the HCC1937 cell line was larger than the cell number of the MDA-MB-231 cell line, preferably the cell number of HCC1937 cell line:cell number of MDA-231 cell line was a ratio of 2:1 or more, for example, 9:1. Then, the cell mixture was transplanted into the fourth mammary gland adipose tissue of an immunodeficient mouse (4 weeks old, female, BALB/c-nu) to thereby construct a tumor-bearing mouse (hereinafter, sometimes referred to as “Mix mouse”). Only the MDA-MB-231 cell line and only the HCC1937 cell line were respectively transplanted into the fourth mammary gland adipose tissue of an immunodeficient mouse (4 weeks old, female, BALB/c-nu) to thereby construct tumor-bearing mice (hereinafter, sometimes referred to as “231 mouse” and “1937 mouse”, respectively) as controls.
Paclitaxel (3 mg/kg) was administered intraperitoneally once a week to Mix mouse and 231 mouse constructed in the same manner as in Experimental Example 2, the tumor diameter was measured with time, and temporal changes in tumor volume were observed (n=5 in each case). As controls, temporal changes in tumor volume were also observed for the groups (control groups) in which physiological saline was administered intraperitoneally in place of paclitaxel (n=5 in each case). […]

CC(=O)O[C@H]1C(=O)[C@@]2(C)[C@H]([C@H](OC(=O)c3ccccc3)[C@]3(O)C[C@H](OC(=O)[C@H](O)[C@@H](NC(=O)c4ccccc4)c4ccccc4)C(C)=C1C3(C)C)[C@]1(OC(C)=O)CO[C@@H]1C[C@@H]2O [Paclitaxel]
temporal changes in tumor volume (resistance of the cancer tissue to paclitaxel): the cancer tissue of the Mix mouse has higher resistance to paclitaxel than the cancer tissue of the 231 mouse
